Assay [1] has as its target T1, ammonium transporter AMT1 (Arabidopsis thaliana, UniProt P54144).
T1 construct: expressed in transfected cells; host or cells: Saccharomyces cerevisiae 26972c (mutations in MEP1 and MEP2)
T1 sequence (P54144 1-501): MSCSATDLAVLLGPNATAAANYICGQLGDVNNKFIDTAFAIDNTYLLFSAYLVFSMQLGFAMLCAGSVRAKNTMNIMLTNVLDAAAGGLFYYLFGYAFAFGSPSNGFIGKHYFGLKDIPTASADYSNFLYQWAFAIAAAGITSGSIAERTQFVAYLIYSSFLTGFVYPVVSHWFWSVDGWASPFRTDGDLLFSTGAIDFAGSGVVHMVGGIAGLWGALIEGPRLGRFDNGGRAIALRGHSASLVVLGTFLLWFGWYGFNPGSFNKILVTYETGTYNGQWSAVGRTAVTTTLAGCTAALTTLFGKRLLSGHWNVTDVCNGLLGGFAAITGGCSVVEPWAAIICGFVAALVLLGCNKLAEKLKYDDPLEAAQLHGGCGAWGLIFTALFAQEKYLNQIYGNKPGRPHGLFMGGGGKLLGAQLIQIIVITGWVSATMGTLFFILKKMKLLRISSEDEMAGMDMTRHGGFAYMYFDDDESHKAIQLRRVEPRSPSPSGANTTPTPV
The experiment in a line: cell-based. Particulars: pH 7; [14C]-methylamine uptake; tested substance 10 μM; read-out: Activity relative to the control [%].
Experimental: The measurements of transport identify inhibitors of plant ammonium transporters are carried out with the structural analog methylamine because radiolabeled ammonium is not commercially obtainable.
The yeast cells are transformed by standard methods with cDNA sequences which code for an ammonium transporter from plants and which permit expression of a functional transporter in the yeast cells. […] The cells are cultured in NAAG-medium (2% glucose, 1.7 g/l yeast nitrogen-base w/o amino acids and ammonium sulfate (Difco), supplemented with 500 μg/ml L-proline) at 28 degrees Celsius, and harvested in the logarithmic phase (OD660.=0.6). The cells are then spun down in a centrifuge at 4000 rpm and 4 degrees Celsius for 10 minutes, washed twice with 20 mM sodium phosphate buffer, pH 7, and taken up in the same buffer to an 0D660 of 8. 200 μl aliquot fractions of the cell suspension are taken. 5 minutes before the actual measurement,the yeasts are activated by addition of 100 mM glucose and incubated at 30 degrees Celsius. To start the reaction, 100 μl of the cell suspension are added to 100 µl of reaction mixture (20 mM Na phosphate buffer, pH7; 18.5 kBq of [^14 C]-methylamine (NEN); 100 M methylamine; substance to be tested depending on the experiment (see FIG. 4)). In each case 10, 60, 120 and 180 seconds after starting the reaction, 50 μl aliquots are taken, added to 4 ml of ice-cold 5 mM methylamine solution and filtered on glass fibre filters. After the filters have been washed with a further 8 ml of a methylamine solution, the radioactivity on the filters is subsequently determined in a liquid scintillation counter. Inhibitors are added 60 seconds before adding the glucose.
The uptake of radiolabeled methylamine without addition of a potential inhibitor is determined as one control.
The various tested substances, their concentration and the activity of the transporter, shown as percentage activity of the control in which no potential inhibitors were added, are indicated.

The target in assay [2] is T2, amino-acid transporter AAP2 (Arabidopsis thaliana, UniProt Q38967).
T2 construct: expressed in transfected cells; host or cells: Saccharomyces cerevisiae mutant 22574d (also printed 22457d)
T2 sequence (Q38967 1-493): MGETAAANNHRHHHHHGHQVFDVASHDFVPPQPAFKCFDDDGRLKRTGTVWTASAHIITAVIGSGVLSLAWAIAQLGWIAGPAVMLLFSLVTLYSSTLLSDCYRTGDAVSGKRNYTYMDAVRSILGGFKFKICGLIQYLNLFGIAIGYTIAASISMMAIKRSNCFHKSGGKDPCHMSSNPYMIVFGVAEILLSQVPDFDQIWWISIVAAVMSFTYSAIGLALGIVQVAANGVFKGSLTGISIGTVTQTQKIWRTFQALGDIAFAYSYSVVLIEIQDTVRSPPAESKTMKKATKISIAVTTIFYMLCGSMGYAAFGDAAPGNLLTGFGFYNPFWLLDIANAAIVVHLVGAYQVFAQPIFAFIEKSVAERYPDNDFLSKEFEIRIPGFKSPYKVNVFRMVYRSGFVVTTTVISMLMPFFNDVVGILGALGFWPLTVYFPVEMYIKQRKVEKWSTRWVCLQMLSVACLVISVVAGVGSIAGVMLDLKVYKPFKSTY
In words: Uptake of radiolabeled L-proline by yeast mutant 22457d-AAP2 expressing the plant amino-acid transporter. It counts as cell-based. The following applies: L-[14C]-proline uptake, read-out: Activity relative to control [%]. As to the method: Transporter investigations are carried out on the yeast mutant 22574d (Jauniaux & Grenson, Eur. J. Biochem. 190: 39-44, 1990), which harbors a mutation in the gene for amino-acid permease, and on the yeast mutant JT 16 (Tanaka and Fink, Gene 38: 205-214, 1985) which is incapable of histidine uptake, for identification of inhibitors of plant amino-acid transporters. These mutants are transformed with cDNA sequences which code for plant amino-acid transporters and lead to expression of functional transporters in the yeast cells. The cDNA sequences are cDNA sequences which code for the amino-acid transporters AAP1 and AAP2 from Arabidopsis thaliana (Frommer et al., 1993, Proc. Natl. Acad. Sci. USA 90: 5944-5948; Kwart et al., 1993, Plant J. 4:993-1002). For the measurements, cells of these mutants are cultured in minimal medium (NAAG+5 mmol/l proline) at 28° C. and harvested in the logarithmic phase (OD600 =0.6). The cells are spun down in a centrifuge at 4000 rpm and 4 degrees Celsius for 10 minutes and washed 2× with AUB buffer (modified AAB buffer, Ljungdahl et al.). The cell concentration is adjusted to an OD600 of 25 in AUB buffer.
100 μl portions of the cell suspension are mixed with 100 μl of a 1 mmol/l L-proline solution (18.5 kBq of L-[14C]-proline) and various concentrations of the appropriate substance to be investigated. After 20, 60, 120 and 180 seconds, a 50 μl aliquot is removed, diluted in 4 ml -of ice-cold AUB buffer and filtered through glass fever [sic] filter. In order to remove nonspecifically bound L-[14C]-proline, the cells are washed 2× with 4 ml of ice-cold water each time. The radioactivity retained on the glass filter is then measured in a liquid scintillation counter. The radioactivity reflects the amount of radiolabeled proline taken up by the cells. Uptake of radiolabeled proline without addition of a potential inhibitor is determined as one control. Cells of each of the mutants 22574d and JY 16 which have not been transformed with cDNA sequences coding for plant amino-acid transporters are used as further control. Results of measurements of this type on the mutants 22457d-AAP2 which expresses the amino-acid transporter AAP2 from Arabisopsis [sic] thaliana are shown in the following table.
For the investigations, yeast cells of the strain 22457d were transformed with a cDNA sequence which codes for the amino-acid transporter AAP2, and the uptake of radiolabeled proline in the presence of various substances was determined. The various substances tested, their concentration, and the activity of the transporter, shown as percentage activity of the control with which no potential inhibitors were added, are indicated.

The next assay deals with sucrose transporters. Particulars: Bush, 1989, Plant Physiol. 89: 1318-1323; result in words; cited from earlier work.

The structures appear in SMILES notation.

Consider `N#CC(C#N)=NNc1cccc(Cl)c1` [CCCP], for which the remaining activity at 10 µM in assay [1] was found to be 40%; in assay [2] (tested substance 10 μM) it was 15.6 ± 2.1%.

Take `CCOC(=O)OC(=O)OCC` [DEPC, diethyl pyrocarbonate]: the “Inhibition of sucrose transport” value with sucrose transporters was “highly effective transport inhibitors”. Besides, in assay [2] (tested substance 1 mM), the remaining activity at 1000 µM stood at 3.1 ± 1.2%.
